Source: the NIST ThermoML archive (doi:10.1016/j.jct.2016.12.029)

Test: xn = mol fraction of the nth substance listed
Details: Gas, Buoyancy - hydrostatic balance with magnetic suspension - one sinker

C=C(F)C(F)(F)F [2,3,3,3-tetrafluoro-1-propene] + CCC
Details | mass density [kg/m3]
285.37 K, 311 kPa, x1 = 0.8116 | 14.287
285.38 K, 402.5 kPa, x1 = 0.0906 | 9.29
285.38 K, 413.6 kPa, x1 = 0.8116 | 19.58
285.39 K, 494.1 kPa, x1 = 0.0906 | 11.653
290.25 K, 583.7 kPa, x1 = 0.583 | 23.524
290.38 K, 102.2 kPa, x1 = 1 | 4.937
290.39 K, 184.5 kPa, x1 = 1 | 9.113
290.4 K, 203.9 kPa, x1 = 0.583 | 7.494
290.4 K, 308.8 kPa, x1 = 1 | 15.792
290.4 K, 421.2 kPa, x1 = 1 | 22.298
290.41 K, 103.5 kPa, x1 = 0.583 | 3.727
290.41 K, 300.6 kPa, x1 = 0.583 | 11.287
290.41 K, 403.8 kPa, x1 = 0.583 | 15.532
290.41 K, 496.6 kPa, x1 = 0.583 | 19.555
290.42 K, 102.2 kPa, x1 = 0.2546 | 2.673
290.42 K, 202.4 kPa, x1 = 0.2546 | 5.395
290.42 K, 297.9 kPa, x1 = 0.2546 | 8.09
290.42 K, 393.4 kPa, x1 = 0.2546 | 10.9
290.43 K, 490.8 kPa, x1 = 0.2546 | 13.893
290.44 K, 106.8 kPa, x1 = 0.8116 | 4.568
290.44 K, 199.7 kPa, x1 = 0.8116 | 8.728
290.44 K, 298.5 kPa, x1 = 0.8116 | 13.363
290.44 K, 586.4 kPa, x1 = 0.2546 | 16.977
290.46 K, 104.6 kPa, x1 = 0.0906 | 2.225
290.46 K, 208.6 kPa, x1 = 0.0906 | 4.52
290.46 K, 314.2 kPa, x1 = 0.0906 | 6.95
290.46 K, 380.2 kPa, x1 = 0.8116 | 17.392
290.46 K, 409.5 kPa, x1 = 0.0906 | 9.237
290.46 K, 465.4 kPa, x1 = 0.8116 | 21.81
290.46 K, 539.6 kPa, x1 = 0.0906 | 12.53
295.4 K, 101.7 kPa, x1 = 1 | 4.829
295.4 K, 196.9 kPa, x1 = 1 | 9.565
295.4 K, 400.6 kPa, x1 = 1 | 20.565
295.4 K, 600.7 kPa, x1 = 1 | 32.885
295.41 K, 305.3 kPa, x1 = 1 | 15.255
295.41 K, 510.2 kPa, x1 = 1 | 27.092
295.43 K, 213.4 kPa, x1 = 0.2546 | 5.607
295.44 K, 312 kPa, x1 = 0.2546 | 8.352
295.44 K, 420 kPa, x1 = 0.2546 | 11.485
295.44 K, 526.9 kPa, x1 = 0.2546 | 14.734
295.45 K, 511.2 kPa, x1 = 0.583 | 19.692
295.45 K, 638.2 kPa, x1 = 0.2546 | 18.298
295.46 K, 105.6 kPa, x1 = 0.583 | 3.727
295.46 K, 202.1 kPa, x1 = 0.583 | 7.273
295.46 K, 304.8 kPa, x1 = 0.583 | 11.205
295.46 K, 309.4 kPa, x1 = 0.0906 | 6.711
295.46 K, 410.8 kPa, x1 = 0.583 | 15.457
295.46 K, 411.3 kPa, x1 = 0.0906 | 9.102
295.47 K, 104.2 kPa, x1 = 0.0906 | 2.174
295.47 K, 209.6 kPa, x1 = 0.0906 | 4.463
295.47 K, 517.9 kPa, x1 = 0.0906 | 11.713
295.47 K, 624.6 kPa, x1 = 0.583 | 24.759
295.48 K, 105.6 kPa, x1 = 0.8116 | 4.43
295.48 K, 198.1 kPa, x1 = 0.8116 | 8.481
295.48 K, 304 kPa, x1 = 0.8116 | 13.338
295.48 K, 403.2 kPa, x1 = 0.8116 | 18.133
295.48 K, 629.5 kPa, x1 = 0.0906 | 14.594
295.5 K, 514.3 kPa, x1 = 0.8116 | 23.825
300.2 K, 668.8 kPa, x1 = 1 | 36.434
300.21 K, 108 kPa, x1 = 1 | 5.039
300.21 K, 218.9 kPa, x1 = 1 | 10.489
300.21 K, 324 kPa, x1 = 1 | 15.933
300.21 K, 439.4 kPa, x1 = 1 | 22.291
300.21 K, 545.8 kPa, x1 = 1 | 28.564
300.21 K, 702.5 kPa, x1 = 0.0906 | 16.204
300.23 K, 569.7 kPa, x1 = 0.8116 | 26.154
300.24 K, 599.9 kPa, x1 = 0.0906 | 13.531
300.24 K, 701 kPa, x1 = 0.583 | 27.648
300.25 K, 190.5 kPa, x1 = 0.0906 | 3.98
300.25 K, 392.5 kPa, x1 = 0.8116 | 17.228
300.25 K, 396.6 kPa, x1 = 0.0906 | 8.595
300.25 K, 489.8 kPa, x1 = 0.8116 | 22.015
300.25 K, 506.5 kPa, x1 = 0.0906 | 11.208
300.25 K, 600.3 kPa, x1 = 0.583 | 23.086
300.26 K, 102.6 kPa, x1 = 0.583 | 3.557
300.26 K, 104.5 kPa, x1 = 0.0906 | 2.152
300.26 K, 106.3 kPa, x1 = 0.8116 | 4.378
300.26 K, 200.3 kPa, x1 = 0.583 | 7.077
300.26 K, 298.9 kPa, x1 = 0.583 | 10.761
300.26 K, 300 kPa, x1 = 0.0906 | 6.389
300.26 K, 301.1 kPa, x1 = 0.8116 | 12.94
300.26 K, 506.5 kPa, x1 = 0.583 | 19.062
300.27 K, 198.3 kPa, x1 = 0.8116 | 8.334
300.27 K, 400.3 kPa, x1 = 0.583 | 14.716
